In ChEMBL document CHEMBL5042478, “Design, Synthesis, and Evaluation of VHL-Based EZH2 Degraders to Enhance Therapeutic Activity against Lymphoma” (J Med Chem, 2021) one finds Activity and Emax data, which are given here for ten molecules.

For assay [1], the target named is von Hippel-Lindau disease tumor suppressor/Histone-lysine N-methyltransferase EZH1 (Homo sapiens) (UniProt Q92800+P40337). The assay is described as follows: Protac activity at VHL/EZH1 in human 22Rv1 cells assessed as EZH1 protein abundance at 1 to 6 uM after 24 hrs by Western blot analysis. The assay is classed as cell-based. The note with it: dose 1-6 µM.
Chain of von Hippel-Lindau disease tumor suppressor/Histone-lysine N-methyltransferase EZH1 (Homo sapiens) (P40337 whole entry, looked up): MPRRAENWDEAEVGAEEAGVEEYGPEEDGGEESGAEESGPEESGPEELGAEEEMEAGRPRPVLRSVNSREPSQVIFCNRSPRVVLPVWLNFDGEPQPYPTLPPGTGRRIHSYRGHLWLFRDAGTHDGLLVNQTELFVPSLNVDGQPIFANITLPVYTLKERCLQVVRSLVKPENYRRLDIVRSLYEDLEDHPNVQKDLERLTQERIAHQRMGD
Chain of von Hippel-Lindau disease tumor suppressor/Histone-lysine N-methyltransferase EZH1 (Homo sapiens) (Q92800 whole entry, looked up): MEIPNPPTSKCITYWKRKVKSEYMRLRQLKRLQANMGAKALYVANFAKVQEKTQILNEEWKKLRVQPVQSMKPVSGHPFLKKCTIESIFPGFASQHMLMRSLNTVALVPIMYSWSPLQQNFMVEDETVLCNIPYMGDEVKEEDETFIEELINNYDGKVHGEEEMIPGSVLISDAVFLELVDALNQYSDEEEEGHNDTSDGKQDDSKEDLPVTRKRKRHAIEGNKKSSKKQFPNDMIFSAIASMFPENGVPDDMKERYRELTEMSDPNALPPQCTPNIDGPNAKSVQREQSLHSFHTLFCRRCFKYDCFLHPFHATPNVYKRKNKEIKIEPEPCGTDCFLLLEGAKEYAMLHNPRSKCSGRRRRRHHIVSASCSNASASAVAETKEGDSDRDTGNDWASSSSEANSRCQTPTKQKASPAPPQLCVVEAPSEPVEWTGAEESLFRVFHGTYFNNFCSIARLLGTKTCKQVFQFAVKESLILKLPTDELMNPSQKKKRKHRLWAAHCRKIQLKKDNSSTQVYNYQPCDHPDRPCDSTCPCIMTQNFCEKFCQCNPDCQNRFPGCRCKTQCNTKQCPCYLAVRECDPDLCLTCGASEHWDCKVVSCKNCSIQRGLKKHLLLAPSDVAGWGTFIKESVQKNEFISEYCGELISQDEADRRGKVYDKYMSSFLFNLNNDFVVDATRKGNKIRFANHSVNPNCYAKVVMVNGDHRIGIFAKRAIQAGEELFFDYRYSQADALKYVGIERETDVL
Assay [2] concerns the target T1, von Hippel-Lindau disease tumor suppressor/Histone-lysine N-methyltransferase EZH2 (Homo sapiens) (UniProt Q15910+P40337). The assay is described as follows: Protac activity at VHL/EZH2 in human 22Rv1 cells assessed as reduction in EZH2 level at 2 uM preincubated with VH032 for 2 hrs followed by compound addition and measured after 24 hrs by Western blot analysis. The assay is classed as cell-based. The note with it: time 26.0 hrs.

For assay [3], the target named is T1, von Hippel-Lindau disease tumor suppressor/Histone-lysine N-methyltransferase EZH2 (Homo sapiens). The assay is described as follows: Protac activity at VHL/EZH2 in VHL knockdown human 22Rv1 cells assessed as reduction in EZH2 level at 2 uM for 24 hrs by Western blot analysis. The assay is classed as cell-based.
Assay [4] shares this target. The assay is described as follows: Protac activity at VHL/EZH2 in human 22Rv1 cells assessed as EZH2 degradation at 2 uM after 2 to 4 hrs by Western blot analysis. The note with it: time 2-4 hrs. The assay is classed as cell-based.
For assay [5] the target is unchanged. The assay is described as follows: Protac activity at VHL/EZH2 in human 22Rv1 cells assessed as maximum degradation efficacy at 2 uM by Western blot analysis relative to control. The assay is classed as cell-based.
Assay [6] relates to SU-DHL-6. The assay is described as follows: Induction of cell cycle arrest in human SU-DHL-6 cells after 24 hrs by flow cytometry. Conditions: dose 1-5 µM. The assay is classed as functional, cell-based.
Assay [7] deals with T1, von Hippel-Lindau disease tumor suppressor/Histone-lysine N-methyltransferase EZH2 (Homo sapiens). The assay is described as follows: Protac activity at VHL/EZH2 in human 22Rv1 cells assessed as reduction in EZH2 level at 1 uM incubated for 48 hrs by Western blot analysis. The assay is classed as cell-based.
The target in assay [8] is T2, von Hippel-Lindau disease tumor suppressor/Polycomb protein SUZ12 (Homo sapiens) (UniProt Q15022+P40337). The assay is described as follows: Protac activity at VHL/SUZ12 in human SUDHL2 cells assessed as reduction in SUZ12 level at 2 uM incubated for 24 hrs by Western blot analysis. The assay is classed as cell-based.
T2 sequence (P40337 whole entry, looked up): as the sequence (P40337 whole entry, looked up) above
T2 sequence (Q15022 whole entry, looked up): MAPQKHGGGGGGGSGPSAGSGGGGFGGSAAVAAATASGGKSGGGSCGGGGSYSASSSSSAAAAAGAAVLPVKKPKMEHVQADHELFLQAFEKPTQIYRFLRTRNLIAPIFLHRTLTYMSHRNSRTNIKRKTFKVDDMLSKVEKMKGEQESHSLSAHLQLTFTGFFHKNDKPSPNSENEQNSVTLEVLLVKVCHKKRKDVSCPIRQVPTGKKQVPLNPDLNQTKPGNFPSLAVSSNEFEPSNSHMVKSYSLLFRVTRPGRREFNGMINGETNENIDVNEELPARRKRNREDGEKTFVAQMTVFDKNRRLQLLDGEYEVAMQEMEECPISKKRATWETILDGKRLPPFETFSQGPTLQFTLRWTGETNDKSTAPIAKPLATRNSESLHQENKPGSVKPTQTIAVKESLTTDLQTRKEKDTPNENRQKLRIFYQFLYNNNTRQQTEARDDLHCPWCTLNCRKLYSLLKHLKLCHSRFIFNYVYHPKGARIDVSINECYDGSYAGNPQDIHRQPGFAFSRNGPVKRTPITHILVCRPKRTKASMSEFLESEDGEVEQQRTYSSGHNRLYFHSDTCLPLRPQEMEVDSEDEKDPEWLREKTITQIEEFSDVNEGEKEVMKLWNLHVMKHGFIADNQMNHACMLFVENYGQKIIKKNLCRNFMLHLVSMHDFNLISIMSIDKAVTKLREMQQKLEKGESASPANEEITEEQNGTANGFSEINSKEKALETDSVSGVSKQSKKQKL
Assay [9] has as its system SU-DHL-6. The assay is described as follows: Induction of apoptosis in human SU-DHL-6 cells assessed as increase in cleaved PARP level at 1 to 5 uM incubated for 48 hrs by Western blot analysis. The assay is classed as functional, cell-based. Conditions: dose 1-5 µM.
Assay [10] has as its system SU-DHL-6. The assay is described as follows: Induction of apoptosis in human SU-DHL-6 cells at 1 to 5 uM incubated for 48 hrs by Annexin V/propidium iodide staining based flow cytometry. The assay is classed as functional, cell-based. The note with it: dose 1-5 µM.
The subject of assay [11] is SU-DHL-6. The assay is described as follows: Induction of cell cycle arrest in human SU-DHL-6 cells assessed as accumulation of cells at sub G1 phase after 24 hrs by flow cytometry. Conditions: dose 1-5 µM. The assay is classed as functional, cell-based.
Assay [12] has as its system SU-DHL-6. The assay is described as follows: Antiproliferative activity against human SU-DHL-6 cells assessed as reduction in cell viability at 0.01 to 10 uM measured after 5 days by MTS assay. Conditions: dose 0.01-10 µM, time 5.0 day. The assay is classed as functional, cell-based.
For assay [13], the system named is SU-DHL-6. The assay is described as follows: Induction of apoptosis in human SU-DHL-6 cells assessed as increase in cleaved capase-3 level at 1 to 5 uM incubated for 48 hrs by Western blot analysis. The assay is classed as functional, cell-based. The note with it: dose 1-5 µM.
A further assay deals with SUD4. The assay is described as follows: Antiproliferative activity against human SU-DHL-4 cells assessed as reduction in cell viability at 0.01 to 10 uM measured after 5 days by MTS assay. Conditions: dose 0.01-10 µM, time 5.0 day. The assay is classed as functional, cell-based.
For assay [14], the target named is T3, von Hippel-Lindau disease tumor suppressor/Polycomb protein EED (Homo sapiens) (UniProt O75530+P40337). The assay is described as follows: Protac activity at VHL/EED in human SUDHL2 cells assessed as reduction in EED level at 2 uM incubated for 24 hrs by Western blot analysis. The assay is classed as cell-based.
T3 sequence (O75530 2-441 limits assumed): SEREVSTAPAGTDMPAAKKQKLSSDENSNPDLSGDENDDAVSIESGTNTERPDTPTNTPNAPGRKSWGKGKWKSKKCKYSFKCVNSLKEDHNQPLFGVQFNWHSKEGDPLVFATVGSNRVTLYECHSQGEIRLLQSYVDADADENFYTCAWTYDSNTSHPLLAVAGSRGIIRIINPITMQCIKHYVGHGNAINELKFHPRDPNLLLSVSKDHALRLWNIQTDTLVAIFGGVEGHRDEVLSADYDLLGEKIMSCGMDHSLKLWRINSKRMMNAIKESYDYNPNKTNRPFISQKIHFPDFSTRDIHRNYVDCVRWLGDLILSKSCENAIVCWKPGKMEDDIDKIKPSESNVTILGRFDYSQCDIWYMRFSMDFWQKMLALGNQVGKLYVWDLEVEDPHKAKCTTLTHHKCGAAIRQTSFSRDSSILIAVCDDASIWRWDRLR
T3 sequence (P40337 whole entry partner): as the sequence (P40337 whole entry, looked up) above
Assay [15] has as its target T1, von Hippel-Lindau disease tumor suppressor/Histone-lysine N-methyltransferase EZH2 (Homo sapiens). The assay is described as follows: Protac activity at VHL/EZH2 in human 22Rv1 cells assessed as reduction in H3K27me3 level at 1 uM incubated for 48 hrs by Western blot analysis. The assay is classed as cell-based.
Assay [16] has as its target Histone-lysine N-methyltransferase EZH2 (Homo sapiens) (UniProt Q15910). The assay is described as follows: Induction of EZH2 degradation in human SUDHL2 cells at 0.1 to 5 uM after 24 hrs by Western blot analysis. The note with it: dose 0.1-5 µM. The assay is classed as cell-based.
The target of assay [17] is T1, von Hippel-Lindau disease tumor suppressor/Histone-lysine N-methyltransferase EZH2 (Homo sapiens). The assay is described as follows: Protac activity at VHL/EZH2 in human 22Rv1 cells assessed as reduction in H3K27me3 level after 24 hrs by Western blot analysis. Conditions: dose 1-6 µM. The assay is classed as cell-based.
For assay [18] the target is unchanged. The assay is described as follows: Protac activity at VHL/EZH2 in human 22Rv1 cells assessed as increase in EZH2 ubiquitination at 2 uM for 12 hrs by immunoprecipitation based Western blot analysis. The assay is classed as cell-based.
For assay [19], the target named is T3, von Hippel-Lindau disease tumor suppressor/Polycomb protein EED (Homo sapiens). The assay is described as follows: Protac activity at VHL/EED in human 22Rv1 cells assessed as reduction in EED level at 2 uM incubated for 24 hrs by Western blot analysis. The assay is classed as cell-based.
Assay [20] concerns the target T2, von Hippel-Lindau disease tumor suppressor/Polycomb protein SUZ12 (Homo sapiens). The assay is described as follows: Protac activity at VHL/SUZ12 in human 22Rv1 cells assessed as reduction in SUZ12 level at 2 uM incubated for 24 hrs by Western blot analysis. The assay is classed as cell-based.
In another assay the test system is SU-DHL-2. The assay is described as follows: Antiproliferative activity against human SUDHL2 cells assessed as reduction in cell viability at 0.01 to 10 uM measured after 5 days by MTS assay. Conditions: dose 0.01-10 µM, time 5.0 day. The assay is classed as functional, cell-based.
Assay [21] addresses T1, von Hippel-Lindau disease tumor suppressor/Histone-lysine N-methyltransferase EZH2 (Homo sapiens). The assay is described as follows: Protac activity at VHL/EZH2 in human 22Rv1 cells assessed as EZH2 protein abundance after 24 hrs by Western blot analysis. The assay is classed as cell-based. Conditions: dose 1-6 µM.
Assay [22] has as its target T4, Protein cereblon/Histone-lysine N-methyltransferase EZH2 (Homo sapiens) (UniProt Q15910+Q96SW2). The assay is described as follows: Protac activity at CRBN E3 ligase/EZH2 in human 22Rv1 cells assessed as degradation of EZH2 at 0.3 uM incubated for 48 hrs by Western blot analysis. The assay is classed as cell-based.
Assay [23] has as its target T4, Protein cereblon/Histone-lysine N-methyltransferase EZH2 (Homo sapiens). The assay is described as follows: Protac activity at CRBN E3 ligase/EZH2 in human 22Rv1 cells assessed as degradation of EZH2 at 1 uM incubated for 48 hrs by Western blot analysis. The assay is classed as cell-based.
The target is the same in assay [24]. The assay is described as follows: Protac activity at CRBN E3 ligase/EZH2 in human 22Rv1 cells assessed as inhibition of H3K27me3 at 0.3 uM incubated for 48 hrs by Western blot analysis. The assay is classed as cell-based.
For assay [25] the target is unchanged. The assay is described as follows: Protac activity at CRBN E3 ligase/EZH2 in human 22Rv1 cells assessed as inhibition of H3K27me3 at 1 uM incubated for 48 hrs by Western blot analysis. The assay is classed as cell-based.
The target is the same in assay [26]. The assay is described as follows: Protac activity at CRBN E3 ligase/EZH2 in human 22Rv1 cells assessed as inhibition of H3K27me3 at 3 uM incubated for 48 hrs by Western blot analysis. The assay is classed as cell-based.
Assay [27] has the same target. The assay is described as follows: Protac activity at CRBN E3 ligase/EZH2 in human 22Rv1 cells assessed as degradation of EZH2 at 3 uM incubated for 48 hrs by Western blot analysis. The assay is classed as cell-based.

Active and inactive are the calls of the source. The rule behind the calls is not given here.

T4 sequence (Q15910 whole entry, looked up): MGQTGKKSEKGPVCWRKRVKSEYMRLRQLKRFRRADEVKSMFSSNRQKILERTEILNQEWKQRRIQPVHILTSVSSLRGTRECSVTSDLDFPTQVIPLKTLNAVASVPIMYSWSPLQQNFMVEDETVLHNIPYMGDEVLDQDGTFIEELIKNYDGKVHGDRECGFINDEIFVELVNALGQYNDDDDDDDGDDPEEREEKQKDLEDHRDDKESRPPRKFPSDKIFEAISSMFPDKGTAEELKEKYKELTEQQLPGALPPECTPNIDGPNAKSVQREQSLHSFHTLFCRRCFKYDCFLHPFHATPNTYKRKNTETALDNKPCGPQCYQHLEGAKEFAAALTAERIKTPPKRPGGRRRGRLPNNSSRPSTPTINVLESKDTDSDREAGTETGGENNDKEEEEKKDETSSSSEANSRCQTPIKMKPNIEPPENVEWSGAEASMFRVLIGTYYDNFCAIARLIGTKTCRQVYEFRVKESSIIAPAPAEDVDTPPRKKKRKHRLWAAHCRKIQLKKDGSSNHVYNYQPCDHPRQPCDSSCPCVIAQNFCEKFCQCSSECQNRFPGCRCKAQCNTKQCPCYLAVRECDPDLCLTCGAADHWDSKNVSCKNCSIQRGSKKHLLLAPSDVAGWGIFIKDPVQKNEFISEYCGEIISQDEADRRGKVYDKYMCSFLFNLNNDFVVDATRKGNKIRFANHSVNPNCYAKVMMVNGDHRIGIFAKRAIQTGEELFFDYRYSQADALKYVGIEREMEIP
T4 sequence (Q96SW2 whole entry, looked up): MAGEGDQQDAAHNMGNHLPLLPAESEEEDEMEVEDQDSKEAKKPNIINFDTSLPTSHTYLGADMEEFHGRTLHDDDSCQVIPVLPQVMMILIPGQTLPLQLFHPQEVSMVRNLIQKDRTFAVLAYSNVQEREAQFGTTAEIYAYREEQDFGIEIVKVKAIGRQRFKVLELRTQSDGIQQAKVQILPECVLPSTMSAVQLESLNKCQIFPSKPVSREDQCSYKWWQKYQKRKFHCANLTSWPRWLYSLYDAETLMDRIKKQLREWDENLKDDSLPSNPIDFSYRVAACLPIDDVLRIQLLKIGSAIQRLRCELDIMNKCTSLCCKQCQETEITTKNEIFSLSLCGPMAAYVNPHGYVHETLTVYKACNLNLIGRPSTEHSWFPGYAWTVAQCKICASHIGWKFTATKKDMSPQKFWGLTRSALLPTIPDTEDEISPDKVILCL
T1 sequence (P40337 whole entry, looked up): as the sequence (P40337 whole entry, looked up) above
T1 sequence (Q15910 whole entry, looked up): as the sequence (Q15910 whole entry, looked up) above
Chain of Histone-lysine N-methyltransferase EZH2 (Homo sapiens) (Q15910 whole entry, looked up): as above

Take `CCN(c1cc(-c2ccc(OCCOCCOCC(=O)N[C@H](C(=O)N3C[C@H](O)C[C@H]3C(=O)NCc3ccc(-c4scnc4C)cc3)C(C)(C)C)cc2)cc(C(=O)NCc2c(C)cc(C)[nH]c2=O)c1C)C1CCOCC1`: the outcome in [1], in assay [2] and in assay [3] was inactive. Also, the result (in assay [4]; in assay [7]; in assay [8]; in the assay with SU-DHL-6 [9]; with SU-DHL-6 [12]; with SU-DHL-6 [13]) was Active. The result (in the assay on SUD4; in assay [14]; in assay [15]; in [16]; in assay [18]; in [19]) was Active. The outcome (in [20]; in the assay with SU-DHL-2) was Active. Further, in assay [5], the Emax is 80%. The Activity entry (in the assay on SU-DHL-6 [6]; in the assay on SU-DHL-6 [10]; with SU-DHL-6 [11]; in [17]; in assay [21]) was “Dose-Dependent Effect” in each case.
Take `CCN(c1cc(-c2ccc(C(=O)NCCOCCOCCOCC(=O)N[C@H](C(=O)N3C[C@H](O)C[C@H]3C(=O)NCc3ccc(-c4scnc4C)cc3)C(C)(C)C)cc2)cc(C(=O)NCc2c(C)cc(C)[nH]c2=O)c1C)C1CCOCC1`: the result in [7] and in assay [15] was inactive.
Take `CCN(c1cc(-c2ccc(C(=O)NCCOCCOCCOCCOCC(=O)N[C@H](C(=O)N3C[C@H](O)C[C@H]3C(=O)NCc3ccc(-c4scnc4C)cc3)C(C)(C)C)cc2)cc(C(=O)NCc2c(C)cc(C)[nH]c2=O)c1C)C1CCOCC1`: the outcome in assay [7] and in assay [15] was inactive.
As for `CCN(c1cc(-c2ccc(C(=O)NCCCCCCNC(=O)COc3cccc4c3C(=O)N(C3CCC(=O)NC3=O)C4=O)cc2)cc(C(=O)NCc2c(C)cc(C)[nH]c2=O)c1C)C1CCOCC1` (centres undefined), the result in assay [22], in assay [23] and in assay [27] was inactive. Also, the result in assay [24], in assay [25] and in assay [26] was Active.
Turning to `CCN(c1cc(-c2ccc(C(=O)NCCCCNc3cccc4c3C(=O)N(C3CCC(=O)NC3=O)C4=O)cc2)cc(C(=O)NCc2c(C)cc(C)[nH]c2=O)c1C)C1CCOCC1` (centres undefined), the result in [22], in [23] and in assay [27] was inactive. The outcome in assay [24], in assay [25] and in assay [26] was Active.
Turning to `CCN(c1cc(-c2ccc(C(=O)NCCCCCCCCNC(=O)COc3cccc4c3C(=O)N(C3CCC(=O)NC3=O)C4=O)cc2)cc(C(=O)NCc2c(C)cc(C)[nH]c2=O)c1C)C1CCOCC1` (centres undefined), the result in [22], in [23], in [24], in assay [25] and in [27] was inactive. Besides, in assay [26], the outcome was Active.
For `CCN(c1cc(-c2ccc(C(=O)NCCOCCNc3cccc4c3C(=O)N(C3CCC(=O)NC3=O)C4=O)cc2)cc(C(=O)NCc2c(C)cc(C)[nH]c2=O)c1C)C1CCOCC1` (centres undefined), the outcome in [22], in assay [23] and in [27] was inactive. Besides, the result in assay [24], in assay [25] and in assay [26] was Active.
Turning to `CCN(c1cc(-c2ccc(C(=O)NCCOCCOCCOCCOc3cccc4c3C(=O)N(C3CCC(=O)NC3=O)C4=O)cc2)cc(C(=O)NCc2c(C)cc(C)[nH]c2=O)c1C)C1CCOCC1` (centres undefined), the outcome in assay [22], in assay [23], in [24] and in assay [27] was inactive. In addition, the outcome in [25] and in assay [26] was Active.
On to `CCN(c1cc(-c2ccc(C(=O)NCCOCCOCCOc3cccc4c3C(=O)N(C3CCC(=O)NC3=O)C4=O)cc2)cc(C(=O)NCc2c(C)cc(C)[nH]c2=O)c1C)C1CCOCC1` (centres undefined), for which the result in assay [22], in assay [23], in [24], in [25], in assay [26] and in [27] was inactive.
Consider `CCN(c1cc(-c2ccc(C(=O)NCCOCCOCC(=O)N[C@H](C(=O)N3C[C@H](O)C[C@H]3C(=O)NCc3ccc(-c4scnc4C)cc3)C(C)(C)C)cc2)cc(C(=O)NCc2c(C)cc(C)[nH]c2=O)c1C)C1CCOCC1`, for which the result in assay [15] was Active.
